Tested on: SARS-CoV-2
Experiment: microbe, parasite or virus in culture
Details: Severe acute respiratory syndrome coronavirus 2, Vero C1008, 48 h

Row | SMILES | IC50 [µM] | IC50 (read-out: pIC50 (converted)) [µM]
1 | CC(=O)OCC(=O)[C@H]1CC[C@H]2[C@@H]3CC=C4C[C@@H](O)CC[C@]4(C)[C@H]3CC[C@]12C | > 20 | > 20
2 | Cc1cccc(C)c1NC(=O)CN1CCCC1 [PYRROCAINE] | > 20 | > 20
3 | CCCNC(=O)NS(=O)(=O)c1ccc(Cl)cc1 [CHLORPROPAMIDE] | > 20 | > 20
4 | C=C1[C@@H]2CC[C@H]3[C@]4(C)C[C@H](O[C@H]5O[C@H](CO)[C@@H](OS(=O)(=O)O)[C@H](OS(=O)(=O)O)[C@H]5OC(=O)CC(C)C)C[C@@H](C(=O)O)[C@H]4CC[C@]3(C2)[C@H]1O | > 20 | > 20
5 | O=C1CCCN1CC#CCN1CCCC1 [OXOTREMORINE] | > 20 | > 20
6 | CC(C)NCC(O)c1ccc(NS(C)(=O)=O)cc1 (stereo not drawn) [SOTALOL] | > 20 | > 20
7 | OC[C@@H](O)[C@@H](O[C@@H]1O[C@H](CO)[C@H](O)[C@H](O)[C@H]1O)[C@H](O)[C@@H](O)CO [LACTITOL] | > 20 | > 20
8 | Cn1c(=O)c2nc(C3CCCC3)[nH]c2n(C)c1=O [8-CYCLOPENTYLTHEOPHYLLINE] | > 20 | > 20
9 | CNC(C)CCC=C(C)C (stereo not drawn) [ISOMETHEPTENE] | > 20 | > 20
10 | O=C(NCCN1CCN(c2ncccn2)CC1)C12CC3CC(CC(C3)C1)C2 [ADATANSERIN] | > 20 | > 20
11 | CC1C2Cc3ccc(O)cc3C1(C)CCN2CC1CC1 (stereo not drawn) | > 20 | > 20
12 | Cc1ncc([N+](=O)[O-])n1CC(O)CCl (stereo not drawn) [ORNIDAZOLE] | > 20 | > 20
13 | COc1ccc(-c2cc(=O)c3cc(OC)ccc3o2)cc1 [6,4'-DIMETHOXYFLAVONE] | > 20 | > 20
14 | CC12CCC(CC1)C(C)(C)O2 [EUCALYPTOL] | > 20 | > 20
15 | CCCCc1cc(OC)c2ccccc2c1OC(C)=O [BUNAPROLAST] | > 20 | > 20
16 | O=C(Nc1ccc(O)cc1)c1ccccc1O [OSALMID] | > 20 | > 20
17 | CC(C)C(=O)OC[C@@]1(CCl)O[C@@H](n2ccc(N)nc2=O)[C@H](F)[C@@H]1OC(=O)C(C)C [LUMICITABINE] | > 20 | > 20
18 | CNC(=O)[C@H]1O[C@@H](n2cnc3c(NCc4cccc(I)c4)nc(Cl)nc32)[C@H](O)[C@@H]1O [NAMODENOSON] | > 20 | > 20
19 | CC1=CC(=O)C2=C(C)C[C@H](O)[C@@H]3[C@H](OC(=O)[C@H]3C)[C@@H]12 [AUSTRICIN] | > 20 | > 20
20 | C=C[C@](C)(O)CC[C@H]1C(=C)C[C@H](OC(C)=O)[C@H]2C(C)(C)CCC[C@]12C | > 20 | > 20

Row | SMILES | IC50 [µM] | IC50 (read-out: pIC50 (converted)) [µM]
21 | O=C(O)CN1C(=O)c2cccc3cccc(c23)C1=O [ALRESTATIN] | > 20 | > 20
22 | CCN(CC)CCN1C(=O)CN=C(c2ccccc2F)c2cc(Cl)ccc21 [FLURAZEPAM] | > 20 | > 20
23 | C[N+](C)(C)CCOP(=O)([O-])OC[C@@H](O)CO | > 20 | > 20
24 | O=C1CN=C(c2ccccc2)c2cc(Cl)ccc2N1 [NORDAZEPAM] | > 20 | > 20
25 | CC[C@@H]1C(=O)OC[C@@H]1Cc1cncn1C [PILOCARPINE] | > 20 | > 20
26 | O=C(NCCNCC(O)COc1ccc(O)cc1)N1CCOCC1 (stereo not drawn) [XAMOTEROL] | > 20 | > 20
27 | O=c1[nH]c(=O)n([C@@H]2O[C@H](CO)[C@@H](O)[C@@H]2O)cc1/C=C/Br [SORIVUDINE] | > 20 | > 20
28 | Nc1ncnc2c1nc(Cl)n2C1O[C@H](CO)[C@@H](O)[C@H]1O (stereo partly drawn) | > 20 | > 20
29 | O=C(c1ccccc1)c1ccccc1 [BENZOPHENONE] | > 20 | > 20
30 | CNC(=O)[C@@H](NC(=O)[C@H](CC(C)C)[C@H](O)C(=O)NO)C(C)(C)C | > 20 | > 20
31 | CC[C@H](C)n1ncn(-c2ccc(N3CCN(c4ccc(OC[C@H]5CO[C@@](Cn6cncn6)(c6ccc(F)cc6F)O5)cc4)CC3)cc2)c1=O | > 20 | > 20
32 | N#CC(c1ccc(Cl)cc1)c1ccc(-n2ncc(=O)[nH]c2=O)cc1Cl (stereo not drawn) [CLAZURIL] | > 20 | > 20
33 | Cc1cc(C2CCCCC2)n(O)c(=O)c1 [CICLOPIROX] | > 20 | > 20
34 | CCCCCC(O)c1cccc(OCc2ccc3ccccc3n2)c1 (stereo not drawn) [REV-5901] | > 20 | > 20
35 | O=C(O)CC(=O)C(=O)O [OXALOACETATE] | > 20 | > 20
36 | NC(=O)c1[nH]nc([C@@H]2O[C@H](CO)[C@@H](O)[C@H]2O)c1O [PYRAZOFURIN] | > 20 | > 20
37 | CC(C)c1cc(C(=O)N2Cc3ccc(CN4CCN(C)CC4)cc3C2)c(O)cc1O [ONALESPIB] | > 20 | > 20
38 | C#C[C@]1(O)CC[C@H]2[C@@H]3CCC4=CC(=NO)CC[C@@H]4[C@H]3CC[C@@]21CC | > 20 | > 20
39 | C=C[C@](C)(O)CC[C@H]1C(=C)C[C@H](O)[C@H]2C(C)(C)CCC[C@]12C | > 20 | > 20

Reference: ChEMBL document CHEMBL4651402, “Screening of ~5500 FDA-approved drugs and clinical candidates for anti-SARS-CoV-2 activity” (2021)
